# Results: patent US20200323843A1 (IRR, Inc., priority 2010, published 2020)
# Entries after “also recorded” stand apart in the source; their conditions may differ. Like-named read-outs stand apart in the source and are kept apart here.
# Tests used:
# influenza [1] = conditions: 10 days; levocetirizine 5 mg po and/or montelukast 10 mg po
# Excerpt: A cohort of 20 patients between the ages of 15-30 years of age (and no other co-morbid disease processes), presenting with classic symptoms of influenza: headache, fever, dry cough and extreme fatigue, are identified and divided into four treatment groups. The first group (CONTROL) receives two placebo tablet(s) each administered together at the same time each day for a period of 10 days.
# Laboratory data shall consist of a complete blood count, comprehensive metabolic panel, C-reactive protein, T and B cell lymphocyte panel, chest x-ray, and viral and aerobic cultures of the airway. Vital signs will be logged at the initial visit and the patient's fever profile tracked over the interim. Onset, duration and intensity of symptoms (headache, fever, cough, fatigue) will be logged in addition to the time to resolution of symptoms (time zero—first dose of medication(s)). Second endpoint data will include the time it takes to return to full activity, work/school.
# [2] = test system: histamine induced wheal and flare; conditions: cited from earlier work
# human rhinovirus = conditions: airway epithelial cells; cited from earlier work
# [3] = test system: eosinophil migration, IL-4, IL-6, IL-8; conditions: cited from earlier work
# [4] = cited from earlier work
# [5] = cited from earlier work; remark: listed apart in the source
# [6] = cited from earlier work; remark: listed apart in the source
# influenza [7] = conditions: patients with influenza; cited from earlier work
compound,measurement,setting,value
"O=C(O)COCCN1CCN([C@H](c2ccccc2)c2ccc(Cl)cc2)CC1 [Levocetirizine, levocetirizine]",influenza symptoms,influenza [1],"reduced fever profile and overall feeling of fatigue, without significant foreshortening of the disease process"
same,potency among the five modern generation antihistamines,[2]; histamine induced wheal and flare data,most potent
same,effectiveness compared with fexofenadine,[2]; levocetirizine 5 mg per day vs fexofenadine 180 mg per day,more effective
same,rhinovirus-induced ICAM-1 and cytokine expression and viral replication,human rhinovirus,inhibits
same,eosinophil migration,[3],decrease
same,"inflammatory mediators, IL-4, IL-6, and IL-8",[3],decrease
same,Steady-state level,[4]; in vivo,40 h
same,time to steady state level,[4]; in vivo,40 h
same,principal side effect,[5]; at higher doses,Sedation
same,dose that can be safely administered,[5]; humans,up to 30 mg/day
"CC(C)(O)c1ccccc1CC[C@@H](SCC1(CC(=O)O)CC1)c1cccc(/C=C/c2ccc3ccc(Cl)cc3n2)c1 [Montelukast, montelukast]","plasma concentration area under the curve profile, IV vs oral tablet",[4]; IV 7 mg vs approved 10 mg oral tablet,comparable
same,"drug interactions with warfarin, theophylline, digoxin, terfenadine, oral contraceptives, or prednisone","[4]; in vivo, po",no drug interactions
same,absorption,[4]; in vivo,rapidly absorbed
same,"linear pharmacokinetics, up to dose",[4]; in vivo,≤ 50 mg
same,time to peak plasma concentration,[4]; in vivo,3 to 4 h
same,"oral bioavailability and Cmax, effect of a standard meal",[4]; standard meal,not affected
same,dose administered without clinically important adverse experiences,"[6]; adult patients, 22 weeks",up to 200 mg/day
same,dose administered without clinically important adverse experiences,"[6]; short-term studies, approximately one week",up to 900 mg/day
CCOC(=O)C1=C[C@@H](OC(CC)CC)[C@H](NC(C)=O)[C@@H](N)C1 [oseltamivir],influenza related lower respiratory tract infections/complications,influenza [7],has not been shown to decrease; also recorded: did not appear to reduce
